From ChEMBL document CHEMBL5108015, “4,6-Disubstituted-1H-Indazole-4-Amine derivatives with immune-chemotherapy effect and in vivo antitumor activity” (Eur J Med Chem, 2022)
Activity calls are given as the source filed them. The calls are words filed in the database; no cut-off is given here.

Assays:
[1] = biological target: T1, Indoleamine 2,3-dioxygenase 1 (Homo sapiens, UniProt P14902); test: Inhibition of human IDO1
Target sequence in this assay (P14902 whole entry): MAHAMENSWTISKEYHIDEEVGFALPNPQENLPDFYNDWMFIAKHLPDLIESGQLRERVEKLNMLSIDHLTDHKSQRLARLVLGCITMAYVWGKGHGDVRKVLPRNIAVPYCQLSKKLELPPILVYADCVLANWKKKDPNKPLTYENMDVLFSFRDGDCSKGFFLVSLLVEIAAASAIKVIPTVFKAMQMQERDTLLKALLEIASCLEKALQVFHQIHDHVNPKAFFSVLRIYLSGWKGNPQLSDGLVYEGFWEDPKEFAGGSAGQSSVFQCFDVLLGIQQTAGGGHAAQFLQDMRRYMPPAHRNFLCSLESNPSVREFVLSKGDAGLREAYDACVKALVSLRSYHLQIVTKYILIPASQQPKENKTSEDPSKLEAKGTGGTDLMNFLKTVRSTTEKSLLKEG

[2] = biological target: T2, Tryptophan 2,3-dioxygenase (Homo sapiens, UniProt P48775); test: Inhibition of human TDO
Target sequence in this assay (P48775 whole entry, the tested form may be a part): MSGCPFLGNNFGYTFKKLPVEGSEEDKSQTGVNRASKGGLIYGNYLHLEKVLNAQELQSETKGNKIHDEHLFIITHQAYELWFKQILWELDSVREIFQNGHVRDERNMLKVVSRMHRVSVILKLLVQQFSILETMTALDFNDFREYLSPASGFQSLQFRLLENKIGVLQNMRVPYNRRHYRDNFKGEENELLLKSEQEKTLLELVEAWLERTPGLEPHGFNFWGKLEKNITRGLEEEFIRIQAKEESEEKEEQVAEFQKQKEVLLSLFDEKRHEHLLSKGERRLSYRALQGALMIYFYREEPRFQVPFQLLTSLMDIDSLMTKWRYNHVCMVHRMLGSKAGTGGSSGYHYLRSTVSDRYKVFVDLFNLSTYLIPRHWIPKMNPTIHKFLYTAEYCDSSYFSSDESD

[3] = biological target: T2, Tryptophan 2,3-dioxygenase; test: (§1) Inhibition of N-terminal hexa-histidine tagged human TDO (19 to 388 residues) expressed in Escherichia coli Transetta (DE3) using L-tryptophan as substrate at 100 uM preincubated with enzyme for 10 mins followed by substrate addition and measured after 30 to 60 mins by microplate reader analysis relative to control; conditions: time 40-70 min
Target sequence in this assay (P48775 whole entry, looked up, the tested form may be a part): as the sequence (P48775 whole entry, the tested form may be a part) above

[4] = biological target: T2, Tryptophan 2,3-dioxygenase; test: as §1, with “10” for “100”; conditions: time 40-70 min
Target sequence in this assay (P48775 whole entry, looked up, the tested form may be a part): as the sequence (P48775 whole entry, the tested form may be a part) above

[5] = biological target: T2, Tryptophan 2,3-dioxygenase; test: Inhibition of N-terminal hexa-histidine tagged human TDO (19 to 388 residues) expressed in Escherichia coli Transetta (DE3) using L-tryptophan as substrate preincubated with enzyme for 10 mins followed by substrate addition and measured after 30 to 60 mins by microplate reader analysis
Target sequence in this assay (P48775 whole entry, the tested form may be a part): as above

[6] = biological target: T1, Indoleamine 2,3-dioxygenase 1; test: as §1, with “IDO1 (12” for “TDO (19”, “403” for “388”; conditions: time 40-70 min
Target sequence in this assay (P14902 whole entry, looked up): as the sequence (P14902 whole entry) above

[7] = biological target: T1, Indoleamine 2,3-dioxygenase 1; test: as §1, with “IDO1 (12” for “TDO (19”, “403” for “388”, “10” for “100”; conditions: time 40-70 min
Target sequence in this assay (P14902 whole entry, looked up): as the sequence (P14902 whole entry) above

[8] = biological target: T1, Indoleamine 2,3-dioxygenase 1; test: Inhibition of N-terminal hexa-histidine tagged human IDO1 (12 to 403 residues) expressed in Escherichia coli Transetta (DE3) using L-tryptophan as substrate preincubated with enzyme for 10 mins followed by substrate addition and measured after 30 to 60 mins by microplate reader analysis
Target sequence in this assay (P14902 whole entry): as above

HEK293 = test: Cytotoxicity against HEK293 cells assessed as inhibition of cell growth at <10 uM incubated for 24 hrs by MTT assay; type: toxicity, cell-based; conditions: human, hek293, 24 h
[9] = biological target: T2, Tryptophan 2,3-dioxygenase; test: Inhibition of TDO in HEK293-A cells transfected with pCMV-TDO2; type: cell-based
Target sequence in this assay (P48775 whole entry, the tested form may be a part): as the sequence (P48775 whole entry, the tested form may be a part) above

HepG2 = test: Cytotoxicity against human HepG2 cells assessed as inhibition of cell growth incubated for 24 hrs by MTT assay; type: functional, cell-based; conditions: HepG2, 24 h
[10] = Cytotoxicity against […] cells assessed as inhibition of cell growth incubated for 24 hrs by MTT assay; type: functional, cell-based; conditions: Mus musculus, Hepa1-6, 24 h
H22 = test: Cytotoxicity against mouse H22 cells assessed as inhibition of cell growth incubated for 24 hrs by MTT assay; type: functional, cell-based; conditions: H22, 24 h
B16 = test: Cytotoxicity against mouse B16 cells assessed as inhibition of cell growth incubated for 24 hrs by MTT assay; type: functional, cell-based; conditions: B16, 24 h
MOLM-13 = test: Cytotoxicity against human MOLM-13 cells assessed as inhibition of cell growth incubated for 24 hrs by MTT assay; type: functional, cell-based; conditions: MOLM-13, 24 h
Jurkat = test: Cytotoxicity against human Jurkat cells assessed as inhibition of cell growth incubated for 24 hrs by MTT assay; type: functional, cell-based
CT26 [11] = test: Antitumor activity against mouse CT26 cells implanted in BALB/c mouse assessed as reduction in tumor weight at 12.5 to 50 mg/kg, IG administered every one day for 9 days and measured every 3 days by vernier caliper analysis; type: functional, organism-based; conditions: dose 12.5-50 mg/kg, time 9.0 day
CT26 [12] = test: Antitumor activity against mouse CT26 cells implanted in BALB/c mouse assessed as reduction in tumor volume at 12.5 to 50 mg/kg, IG administered every one day for 9 days and measured every 3 days by vernier caliper analysis; type: functional, organism-based; conditions: dose 12.5-50 mg/kg, time 9.0 day
CT26 [13] = test: Antitumor activity against mouse CT26 cells implanted in BALB/c mouse assessed as inhibition of tumor volume at 25 mg/kg, IG administered every one day for 9 days and measured every 3 days by vernier caliper analysis relative to control; type: functional; conditions: CT26, po, 216 h, time 9 day
[14] = Toxicity in BALB/c mouse implanted with mouse CT26 cells assessed as reduction in body weight at 12.5 to 50 mg/kg, IG administered every one day for 9 days and measured every 3 days; type: organism-based; conditions: in vivo, po, 216 h, dose 12.5-50 mg/kg, time 9 day
CT26 [15] = test: Downregulation of Foxp3 expression in tumor of BALB/c mouse implanted with mouse CT26 cells at 12.5 to 50 mg/kg, IG administered every one day for 9 days by Hematoxylin staining based immunohistochemistry analysis; type: functional, organism-based; conditions: dose 12.5-50 mg/kg, time 9.0 day
CT26 [16] = test: Upregulation of CD8 expression in tumor of BALB/c mouse implanted with mouse CT26 cells at 12.5 to 50 mg/kg, IG administered every one day for 9 days by Hematoxylin staining based immunohistochemistry analysis; type: functional, organism-based; conditions: dose 12.5-50 mg/kg, time 9.0 day
CT26 [17] = test: Downregulation of TNF-alpha expression in tumor of BALB/c mouse implanted with mouse CT26 cells at 12.5 to 50 mg/kg, IG administered every one day for 9 days by Hematoxylin staining based immunohistochemistry analysis; type: functional, organism-based; conditions: dose 12.5-50 mg/kg, time 9.0 day
CT26 [18] = test: Antitumor activity against mouse CT26 cells implanted in BALB/c mouse assessed as reduction in tumor weight at 50 mg/kg, IG administered every one day for 9 days and measured every 3 days by vernier caliper analysis; type: functional, organism-based; conditions: time 9.0 day
CT26 [19] = test: Antitumor activity against mouse CT26 cells implanted in BALB/c mouse assessed as reduction in tumor volume at 50 mg/kg, IG administered every one day for 9 days and measured every 3 days by vernier caliper analysis relative to control; type: functional, organism-based; conditions: time 9.0 day
CT26 [20] = test: Antitumor activity against mouse CT26 cells implanted in BALB/c mouse assessed as inhibition of tumor volume at 50 mg/kg, IG administered every one day for 9 days and measured every 3 days by vernier caliper analysis relative to control; type: functional; conditions: CT26, po, 216 h, time 9 day
[21] = Toxicity in BALB/c mouse implanted with mouse CT26 cells assessed as reduction in body weight at 50 mg/kg, IG administered every one day for 9 days and measured every 3 days; type: organism-based; conditions: in vivo, po, 216 h, time 9 day
CT26 [22] = test: Antitumor activity against mouse CT26 cells implanted in BALB/c mouse assessed as inhibition of tumor volume at 30 mg/kg, IG administered every one day for 9 days and measured every 3 days by vernier caliper analysis relative to control; type: functional; conditions: CT26, po, 216 h, time 9 day

| SMILES | IC50 [1] [µM] | IC50 [2] [µM] | inhibition [3] [%] | inhibition [4] [%] | IC50 [5] [µM] | inhibition [6] [%] | inhibition [7] [%] | IC50 [8] [µM] | IC50 (HepG2) [µM] | IC50 [10] [µM] | IC50 (H22) [µM] | IC50 (B16) [µM] | IC50 (MOLM-13) [µM] | IC50 (Jurkat) [µM] | further results |
| --- | --- | --- | --- | --- | --- | --- | --- | --- | --- | --- | --- | --- | --- | --- | --- |
| O[C@@H]1c2ccnn2CC[C@H]1[C@H]1c2ccccc2-c2cncn21 | 4.5 | 0.13 | – | – | – | – | – | – | – | – | – | – | – | – | – |
| Cc1ccc(CNc2cc(C(F)(F)F)cc3[nH]ncc23)c([N+](=O)O)c1 | – | – | 92 | 90 | 0.62 | 62 | 36 | > 100 | 0.54 | 5.08 | 1.34 | 37.4 | 3.43 | 7.25 | Activity (HEK293): Non-Toxic; IC50 [9]: 0.06 µM; Activity (CT26 [11]): Active; Activity (CT26 [12]): Active; inhibition in vivo at 25 mg/kg (CT26 [13]): 76.9%; Activity [14]: Non-Toxic; Activity (CT26 [15]): Active; Activity (CT26 [16]): Active; Activity (CT26 [17]): Active |
| O=[N+]([O-])c1ccc(O)cc1CNc1cc(Br)cc2[nH]ncc12 | – | – | 99 | 96 | 0.46 | 98 | 92 | 0.91 | > 20 | > 20 | > 20 | > 20 | > 20 | > 20 | Activity (CT26 [18]): Active; Activity (CT26 [19]): Active; inhibition in vivo at 50 mg/kg (CT26 [20]): 60.5%; Activity [21]: Non-Toxic |
| NS(=O)(=O)NCCNc1nonc1/C(=N/O)Nc1ccc(F)c(Br)c1 [EPACADOSTAT] | – | – | – | – | – | – | – | – | – | – | – | – | – | – | inhibition in vivo at 30 mg/kg (CT26 [22]): 57.5% |
| NC(=O)Nc1ccc(-c2c[nH]c3cc(F)ccc23)cc1 | 0.049 | 0.078 | – | – | – | – | – | – | – | – | – | – | – | – | – |
| CS(=O)(=O)c1ccc(CNc2cc(C(F)(F)F)cc3[nH]ncc23)c([N+](=O)O)c1 | – | – | 98 | 96 | 0.79 | 93 | 63 | 58 | > 20 | > 20 | > 20 | > 20 | > 20 | > 20 | – |
